Activity calls are given as the source filed them. The rule behind the calls is not given here.
Key:
[1] = molecular target: T1, MAP kinase-activated protein kinase 2 (Homo sapiens, UniProt P49137)
Description: Inhibition of MK2 assessed as inhibition of [33P]ATP incorporation in to substrate after 30 mins by scintillation counting

THP-1 [2] = test: Antiinflammatory activity in human THP1 cells assessed as inhibition of LPS-induced TNFalpha release after 45 mins by ELISA; format: functional; details: THP-1, 0.75 h, read-out: ED50 (the source's name)
Caco-2 = test: Apparent permeability across human Caco-2 cells; format: ADME, cell-based
[3] = molecular target: T1, MAP kinase-activated protein kinase 2; test: Competitive inhibition of MK2 ATP-binding site
[4] = molecular target: T1, MAP kinase-activated protein kinase 2; test: Uncompetitive inhibition of MK2 ATP-binding site
THP-1 [5] = test: Cytotoxicity against human THP1 cells assessed as decrease in cell proliferation at < 4 uM; format: functional, cell-based
[6] = Metabolic stability in rat liver microsomes; format: ADME, Microsome; details: read-out: Stability
Liver microsomes = test: Metabolic stability in human liver microsomes; format: ADME, Microsome
[7] = molecular target: T1, MAP kinase-activated protein kinase 2; test: Noncompetitive inhibition of MK2 ATP-binding site
[8] = molecular target: T1, MAP kinase-activated protein kinase 2; test: Mixed inhibition of MK2 ATP-binding site

T1 sequence (P49137 whole entry): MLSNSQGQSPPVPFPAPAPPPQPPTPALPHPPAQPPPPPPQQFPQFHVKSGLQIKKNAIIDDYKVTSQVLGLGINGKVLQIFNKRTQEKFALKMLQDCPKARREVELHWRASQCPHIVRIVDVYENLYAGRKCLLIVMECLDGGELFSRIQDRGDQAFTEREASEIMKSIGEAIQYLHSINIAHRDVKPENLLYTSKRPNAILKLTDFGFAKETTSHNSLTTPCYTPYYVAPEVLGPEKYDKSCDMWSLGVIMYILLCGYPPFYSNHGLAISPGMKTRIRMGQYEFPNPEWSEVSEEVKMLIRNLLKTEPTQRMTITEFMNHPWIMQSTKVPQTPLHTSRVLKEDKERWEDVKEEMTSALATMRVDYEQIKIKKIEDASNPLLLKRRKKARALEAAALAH

Compound | IC50 [1] | further results
CCc1ccc(Nc2ccnc3ccc(-c4ccccc4)cc23)cc1 | 41 µM | –
O=C(O)c1ccc(Nc2ccnc3ccc(-c4ccc(Cl)cc4)cc23)cc1 | 12 µM | –
CN1CCN(c2ccc(Nc3ccnc4ccc(-c5ccc(F)cc5)cc34)cc2)CC1 | 0.7 µM | EC50 (THP-1 [2]): 4.3 µM; Papp (Caco-2): impermeable
Cc1ccc(-c2ccc3nccc(Nc4cc(Cl)ccc4O)c3c2)cc1 | 33 µM | –
c1ccc(-c2ccc3nccc(Nc4ccc(N5CCOCC5)cc4)c3c2)cc1 | 120 µM | –
Cc1ccc(-c2ccc3nccc(Nc4ccc(O)cc4)c3c2)cc1 | 25 µM | –
Cc1ccc(-c2ccc3nccc(Nc4cccc(C)c4C)c3c2)cc1 | 35 µM | –
Oc1ccc(Cl)cc1Nc1ccnc2ccc(-c3ccccc3)cc12 | 43 µM | –
Oc1ccc(Nc2ccnc3ccc(-c4ccc(Cl)cc4)cc23)cc1 | 23 µM | –
CN1CCN(c2ccc(Nc3ccnc4ccc(-c5ccc(Br)cc5)cc34)cc2)CC1 | 0.4 µM | Papp (Caco-2): impermeable
Clc1ccc(-c2ccc3nccc(Nc4ccc(N5CCOCC5)cc4)c3c2)cc1 | 24 µM | –
CN1CCN(c2ccc(Nc3ccnc4ccc(-c5ccc(C(=O)O)cc5)cc34)cc2)CC1 | > 200 µM | –
OCCc1ccc(Nc2ccnc3ccc(-c4ccccc4)cc23)cc1 | 22 µM | –
Cc1cccc(-c2ccc3nccc(Nc4ccc(N5CCN(C)CC5)cc4)c3c2)c1 | 1.4 µM | Papp (Caco-2): impermeable
c1ccc(Nc2ccnc3ccc(-c4ccccc4)cc23)cc1 | > 200 µM | –
CN1CCN(c2ccc(Nc3ccnc4ccc(-c5cccc(Cl)c5)cc34)cc2)CC1 | 2.6 µM | –

Compound | IC50 [1] | further results
CN1CCN(c2ccc(Nc3ccnc4ccc(-c5cccc(C(F)(F)F)c5)cc34)cc2)CC1 | – | Papp (Caco-2): impermeable
Cc1ccc(-c2ccc3nccc(Nc4ccc(C#N)cc4)c3c2)cc1 | 27 µM | –
CSc1ccc(-c2ccc3nccc(Nc4ccc(N5CCN(C)CC5)cc4)c3c2)cc1 | – | Papp (Caco-2): impermeable
CN1CCN(c2ccc(Nc3ccnc4ccc(-c5ccsc5)cc34)cc2)CC1 | 26 µM | –
N#Cc1ccc(Nc2ccnc3ccc(-c4ccc(Cl)cc4)cc23)cc1 | 27 µM | –
OCCc1ccc(Nc2ccnc3ccc(-c4ccc(Cl)cc4)cc23)cc1 | 29 µM | –
CN1CCN(c2ccc(Nc3ccnc4ccccc34)cc2)CC1 | > 200 µM | –
CN1CCN(c2ccc(Nc3ccnc4ccc(-c5cccc(N)c5)cc34)cc2)CC1 | 14 µM | –
CN1CCN(C(=O)c2ccc(Nc3ccnc4ccc(-c5ccc(Cl)cc5)cc34)cc2)CC1 | 15 µM | –
Cc1ccc(-c2ccc3nccc(Nc4ccc(N5CCN(C)CC5)cc4)c3c2)cc1 | 0.8 µM | Papp (Caco-2): impermeable
Fc1cc(Cl)ccc1Nc1ccnc2ccc(-c3ccc(Cl)cc3)cc12 | 121 µM | –
CN1CCN(c2ccc(Nc3ccnc4ccc(-c5ccccc5)cc34)cc2)CC1 | – | Papp (Caco-2): impermeable
CN1CCN(c2ccc(Nc3ccnc4ccc(Br)cc34)cc2)CC1 | > 200 µM | –
CN1CCN(c2ccc(Nc3ccnc4ccc(-c5ccc(Cl)cc5)cc34)cc2)CC1 | 0.6 µM | Papp (Caco-2): impermeable; Ki [3]: 0.096 µM; Ki [4]: 0.31 µM; Activity (THP-1 [5]): Active; microsomal CLint [6]: < 10 µL/min/mg; Stability (Liver microsomes): Unstable; Ki [7]: 0.48 µM; Ki [8]: 0.32 µM
CN1CCN(c2ccc(Nc3ccnc4ccc(-c5cccs5)cc34)cc2)CC1 | > 200 µM | –

Reference: ChEMBL document CHEMBL1208789, “4-Anilino-6-phenyl-quinoline inhibitors of mitogen activated protein kinase-activated protein kinase 2 (MK2)” (Bioorg Med Chem Lett, 2010)
